Reference: ChEMBL document CHEMBL4138139, “Discovery of VU6005649, a CNS Penetrant mGlu7/8 Receptor PAM Derived from a Series of Pyrazolo[1,5-a]pyrimidines” (ACS Med Chem Lett, 2017)
pEC50, pIC50: −log10 of the molar value.

Assays:
[1] = Brain to plasma partition coefficient, Kp of the compound in Sprague-Dawley rat at 0.2 to […], iv administered as cassette dose measured at […] post dose by LC-MS/MS analysis; assay type: ADME, organism-based; conditions: brain and plasma
[2] = Unbound brain to plasma concentration ratio in Sprague-Dawley rat at 0.2 to […], iv administered as cassette dose measured at […] post dose by LC-MS/MS analysis; assay type: ADME, organism-based; conditions: brain and plasma, read-out: K(p,uu,brain)
Cytochrome P450 1A2 = target: T1, Cytochrome P450 1A2 (Homo sapiens, UniProt P05177); assay: Inhibition of CYP1A2 in human liver microsomes using phenacetin as substrate preincubated for 15 mins followed by NADPH addition measured after 8 mins by LC-MS/MS analysis; assay type: ADME
T1 sequence (P05177 whole entry): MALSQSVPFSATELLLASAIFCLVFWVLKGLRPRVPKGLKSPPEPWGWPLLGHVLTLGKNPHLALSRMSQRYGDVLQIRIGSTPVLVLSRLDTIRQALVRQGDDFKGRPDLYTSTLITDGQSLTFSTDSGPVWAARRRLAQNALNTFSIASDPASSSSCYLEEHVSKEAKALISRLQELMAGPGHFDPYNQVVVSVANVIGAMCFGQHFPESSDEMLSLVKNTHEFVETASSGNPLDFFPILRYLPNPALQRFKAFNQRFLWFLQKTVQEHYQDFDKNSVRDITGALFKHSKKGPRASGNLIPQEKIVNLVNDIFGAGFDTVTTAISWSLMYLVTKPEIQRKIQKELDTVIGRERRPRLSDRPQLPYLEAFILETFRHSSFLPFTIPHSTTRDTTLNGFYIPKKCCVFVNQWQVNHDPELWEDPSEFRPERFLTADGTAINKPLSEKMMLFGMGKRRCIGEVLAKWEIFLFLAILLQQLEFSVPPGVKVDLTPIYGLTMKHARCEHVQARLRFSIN

Cytochrome P450 2C9 = Cytochrome P450 2C9 (Homo sapiens, UniProt P11712); assay: Inhibition of CYP2C9 in human liver microsomes using diclofenac as substrate preincubated for 15 mins followed by NADPH addition measured after 8 mins by LC-MS/MS analysis; assay type: ADME
Cytochrome P450 2C9, sequence (P11712 whole entry): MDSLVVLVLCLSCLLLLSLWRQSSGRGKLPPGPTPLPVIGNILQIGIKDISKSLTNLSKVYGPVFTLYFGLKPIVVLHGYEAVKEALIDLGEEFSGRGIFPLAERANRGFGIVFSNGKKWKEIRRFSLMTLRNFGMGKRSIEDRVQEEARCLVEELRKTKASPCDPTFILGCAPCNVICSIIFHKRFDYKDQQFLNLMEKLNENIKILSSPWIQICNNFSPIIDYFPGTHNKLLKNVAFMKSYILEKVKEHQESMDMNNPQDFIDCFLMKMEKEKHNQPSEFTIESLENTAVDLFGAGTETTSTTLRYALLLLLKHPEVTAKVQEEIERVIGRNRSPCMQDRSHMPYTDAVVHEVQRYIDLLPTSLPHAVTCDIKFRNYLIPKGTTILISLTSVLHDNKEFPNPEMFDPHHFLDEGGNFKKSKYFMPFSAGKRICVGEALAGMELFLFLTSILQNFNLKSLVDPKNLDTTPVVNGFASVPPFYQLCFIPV

Cytochrome P450 3A4 = Cytochrome P450 3A4 (Homo sapiens, UniProt P08684); assay: Inhibition of CYP3A4 in human liver microsomes using midazolam as substrate preincubated for 15 mins followed by NADPH addition measured after 8 mins by LC-MS/MS analysis; assay type: ADME
Cytochrome P450 3A4, sequence (P08684 whole entry): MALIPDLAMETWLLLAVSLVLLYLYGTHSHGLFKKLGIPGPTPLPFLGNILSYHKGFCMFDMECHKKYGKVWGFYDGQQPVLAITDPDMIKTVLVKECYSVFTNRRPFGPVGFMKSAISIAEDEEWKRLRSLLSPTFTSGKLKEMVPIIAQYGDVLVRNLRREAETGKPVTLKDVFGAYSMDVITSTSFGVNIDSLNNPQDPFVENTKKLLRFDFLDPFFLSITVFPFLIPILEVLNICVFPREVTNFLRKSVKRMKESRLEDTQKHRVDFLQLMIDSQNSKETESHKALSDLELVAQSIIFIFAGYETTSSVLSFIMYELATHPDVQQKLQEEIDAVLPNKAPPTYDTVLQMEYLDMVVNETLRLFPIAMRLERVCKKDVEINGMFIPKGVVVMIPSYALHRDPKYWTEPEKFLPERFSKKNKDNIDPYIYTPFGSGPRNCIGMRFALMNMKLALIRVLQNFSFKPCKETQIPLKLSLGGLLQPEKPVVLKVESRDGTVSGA

Cytochrome P450 2D6 = Cytochrome P450 2D6 (Homo sapiens, UniProt P10635); assay: Inhibition of CYP2D6 in human liver microsomes using dextromethorphan as substrate preincubated for 15 mins followed by NADPH addition measured after 8 mins by LC-MS/MS analysis; assay type: ADME
Cytochrome P450 2D6, sequence (P10635 whole entry): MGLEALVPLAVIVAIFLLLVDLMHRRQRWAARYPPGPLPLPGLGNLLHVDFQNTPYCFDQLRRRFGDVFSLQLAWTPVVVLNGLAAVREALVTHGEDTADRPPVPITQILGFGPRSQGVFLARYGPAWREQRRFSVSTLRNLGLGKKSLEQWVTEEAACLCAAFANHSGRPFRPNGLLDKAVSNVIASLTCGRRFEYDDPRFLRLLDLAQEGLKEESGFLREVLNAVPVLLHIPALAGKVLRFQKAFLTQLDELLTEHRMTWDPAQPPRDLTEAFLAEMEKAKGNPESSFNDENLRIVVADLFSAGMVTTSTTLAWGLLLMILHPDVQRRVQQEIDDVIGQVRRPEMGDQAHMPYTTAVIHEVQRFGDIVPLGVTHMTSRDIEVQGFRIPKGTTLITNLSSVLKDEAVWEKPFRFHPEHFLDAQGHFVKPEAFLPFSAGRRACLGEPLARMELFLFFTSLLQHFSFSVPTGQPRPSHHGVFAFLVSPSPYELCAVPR

[3] = target: T2, Metabotropic glutamate receptor 7 (Rattus norvegicus, UniProt P35400); assay: Positive allosteric modulation of rat mGlu7 receptor expressed in HEK cells co-expressing Galphai5 assessed as increase in glutamate-induced calcium flux incubated for 142 secs followed by glutamate addition measured after 120 secs by Fluo4-AM dye based fluorescence assay; assay type: functional, cell-based
T2 sequence (P35400 whole entry): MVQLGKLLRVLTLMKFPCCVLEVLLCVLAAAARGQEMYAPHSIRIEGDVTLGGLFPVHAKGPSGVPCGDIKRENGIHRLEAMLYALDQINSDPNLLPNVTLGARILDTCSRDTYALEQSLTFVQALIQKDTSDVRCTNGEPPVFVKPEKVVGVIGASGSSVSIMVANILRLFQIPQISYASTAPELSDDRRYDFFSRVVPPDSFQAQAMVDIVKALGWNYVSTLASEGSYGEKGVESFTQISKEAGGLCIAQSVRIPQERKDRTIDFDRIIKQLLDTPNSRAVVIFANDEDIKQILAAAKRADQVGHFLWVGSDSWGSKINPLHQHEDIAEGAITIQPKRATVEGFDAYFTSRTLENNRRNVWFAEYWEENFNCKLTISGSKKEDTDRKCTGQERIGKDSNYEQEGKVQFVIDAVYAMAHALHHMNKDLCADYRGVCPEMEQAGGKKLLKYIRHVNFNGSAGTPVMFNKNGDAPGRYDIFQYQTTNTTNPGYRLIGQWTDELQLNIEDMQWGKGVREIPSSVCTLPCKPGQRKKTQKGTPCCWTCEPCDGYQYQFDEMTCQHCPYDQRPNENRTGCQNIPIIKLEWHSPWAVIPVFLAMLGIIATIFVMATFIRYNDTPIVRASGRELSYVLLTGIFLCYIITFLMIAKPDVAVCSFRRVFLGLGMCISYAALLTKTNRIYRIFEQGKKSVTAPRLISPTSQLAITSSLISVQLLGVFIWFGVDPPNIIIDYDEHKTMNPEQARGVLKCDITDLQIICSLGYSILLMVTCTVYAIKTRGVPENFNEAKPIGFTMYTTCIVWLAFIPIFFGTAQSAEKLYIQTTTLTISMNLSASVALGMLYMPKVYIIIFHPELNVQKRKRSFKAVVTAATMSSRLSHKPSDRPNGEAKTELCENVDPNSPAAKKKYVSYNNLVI

[4] = target: T3, Metabotropic glutamate receptor 8 (Rattus norvegicus, UniProt P70579); assay: Positive allosteric modulation of rat mGlu8 receptor expressed in HEK cells co-expressing Galphai5 assessed as increase in glutamate-induced calcium flux incubated for 142 secs followed by glutamate addition measured after 120 secs by Fluo4-AM dye based fluorescence assay; assay type: functional, cell-based
T3 sequence (P70579 whole entry): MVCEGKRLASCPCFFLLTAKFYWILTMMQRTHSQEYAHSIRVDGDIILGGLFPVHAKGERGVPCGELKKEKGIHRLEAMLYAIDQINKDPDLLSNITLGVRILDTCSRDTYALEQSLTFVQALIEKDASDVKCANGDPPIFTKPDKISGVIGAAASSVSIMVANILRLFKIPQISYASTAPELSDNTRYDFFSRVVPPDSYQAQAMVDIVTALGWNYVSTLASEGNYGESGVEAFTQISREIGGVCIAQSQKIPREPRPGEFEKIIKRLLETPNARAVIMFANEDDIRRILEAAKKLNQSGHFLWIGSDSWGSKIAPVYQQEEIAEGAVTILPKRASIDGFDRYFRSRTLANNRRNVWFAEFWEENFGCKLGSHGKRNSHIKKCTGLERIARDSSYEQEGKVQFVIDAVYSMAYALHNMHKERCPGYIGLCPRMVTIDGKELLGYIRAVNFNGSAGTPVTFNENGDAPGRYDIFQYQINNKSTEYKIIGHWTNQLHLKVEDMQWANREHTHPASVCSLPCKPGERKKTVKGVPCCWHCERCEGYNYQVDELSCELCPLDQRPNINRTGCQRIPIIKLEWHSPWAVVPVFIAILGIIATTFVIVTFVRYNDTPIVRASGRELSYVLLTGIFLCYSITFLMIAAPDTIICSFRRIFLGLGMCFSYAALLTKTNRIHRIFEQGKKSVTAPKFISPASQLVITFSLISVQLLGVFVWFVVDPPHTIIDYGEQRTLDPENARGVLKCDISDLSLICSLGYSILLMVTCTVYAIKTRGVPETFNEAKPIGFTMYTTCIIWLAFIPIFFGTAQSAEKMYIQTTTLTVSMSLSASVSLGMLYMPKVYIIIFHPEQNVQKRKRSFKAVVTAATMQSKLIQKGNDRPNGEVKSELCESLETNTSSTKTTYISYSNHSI

[5] = target: T4, Metabotropic glutamate receptor 4 (Homo sapiens, UniProt Q14833); assay: Positive allosteric modulation of human mGlu4 receptor expressed in CHO cells co-expressing Gqi5 assessed as increase in glutamate-induced calcium mobilization incubated for 142 secs followed by glutamate addition measured after 120 secs by Fluo4-AM dye based fluorescence assay; assay type: functional, cell-based
T4 sequence (Q14833 whole entry): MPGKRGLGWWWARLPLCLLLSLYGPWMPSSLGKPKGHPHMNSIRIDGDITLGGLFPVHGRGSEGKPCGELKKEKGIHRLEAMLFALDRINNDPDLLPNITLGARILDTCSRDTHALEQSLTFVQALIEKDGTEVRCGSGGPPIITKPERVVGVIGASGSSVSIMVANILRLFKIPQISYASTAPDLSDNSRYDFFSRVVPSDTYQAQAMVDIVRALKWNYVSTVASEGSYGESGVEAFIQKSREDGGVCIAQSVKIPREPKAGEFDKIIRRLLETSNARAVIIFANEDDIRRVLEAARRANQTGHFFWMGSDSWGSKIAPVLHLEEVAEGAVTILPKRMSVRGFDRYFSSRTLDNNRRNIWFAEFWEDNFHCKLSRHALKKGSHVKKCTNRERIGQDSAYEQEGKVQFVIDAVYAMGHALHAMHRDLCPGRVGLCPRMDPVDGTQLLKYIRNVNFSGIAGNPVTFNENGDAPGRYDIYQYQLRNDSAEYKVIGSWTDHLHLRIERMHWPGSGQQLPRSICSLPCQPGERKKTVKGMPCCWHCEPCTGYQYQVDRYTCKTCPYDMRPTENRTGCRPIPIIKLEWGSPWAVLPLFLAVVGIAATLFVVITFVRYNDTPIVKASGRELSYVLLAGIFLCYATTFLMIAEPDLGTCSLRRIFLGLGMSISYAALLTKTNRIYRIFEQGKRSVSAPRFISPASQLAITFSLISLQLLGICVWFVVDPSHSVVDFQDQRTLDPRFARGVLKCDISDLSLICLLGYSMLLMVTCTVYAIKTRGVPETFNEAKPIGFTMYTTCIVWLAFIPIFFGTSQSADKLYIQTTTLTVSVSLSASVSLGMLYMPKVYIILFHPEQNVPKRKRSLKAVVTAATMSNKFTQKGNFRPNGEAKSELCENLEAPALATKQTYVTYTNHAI

[6] = target: T4, Metabotropic glutamate receptor 4; assay: Negative allosteric modulation of human mGlu4 receptor expressed in CHO cells co-expressing Gqi5 harboring GIRK channel assessed as decrease in glutamate-induced thallium flux incubated for 142 secs followed by glutamate addition measured after 120 secs by Fluo4-AM dye based fluorescence assay; assay type: functional, cell-based
[7] = target: T3, Metabotropic glutamate receptor 8; assay: Negative allosteric modulation of rat mGlu8 receptor expressed in HEK cells co-expressing Galphai5 assessed as decrease in glutamate-induced thallium flux incubated for 142 secs followed by glutamate addition measured after 120 secs by Fluo4-AM dye based fluorescence assay; assay type: functional, cell-based
[8] = target: T2, Metabotropic glutamate receptor 7; assay: Negative allosteric modulation of rat mGlu7 receptor expressed in HEK cells co-expressing Galphai5 assessed as decrease in glutamate-induced thallium flux incubated for 142 secs followed by glutamate addition measured after 120 secs by Fluo4-AM dye based fluorescence assay; assay type: functional, cell-based

SMILES: COc1ccc(-c2c(C)nn3c(C(F)(F)F)cc(C)nc23)c(F)c1
- Kp at […] [1]: 1.4
- Kp uu at […] [2]: 0.9

SMILES: COc1ccc(-c2c(C)nn3c(C(F)(F)F)cc(C)nc23)cc1
- Kp at […] [1]: 1.4
- pIC50 (Cytochrome P450 1A2): 6.16
- pIC50 (Cytochrome P450 2C9): < 4.52
- pIC50 (Cytochrome P450 3A4): < 4.52
- pIC50 (Cytochrome P450 2D6): < 4.52

SMILES: COc1ccc(-c2c(C)nn3c(C(F)(F)F)cc(C)nc23)cc1Cl
- Kp at […] [1]: 4.8
- Kp uu at […] [2]: 1.7

SMILES: COc1cc(F)c(-c2c(C)nn3c(C(F)(F)F)cc(C)nc23)c(F)c1
- Kp at […] [1]: 2.2
- pIC50 (Cytochrome P450 1A2): 5.06
- pIC50 (Cytochrome P450 2C9): < 4.52
- pIC50 (Cytochrome P450 3A4): < 4.52
- pIC50 (Cytochrome P450 2D6): < 4.52

SMILES: COC(=O)c1ccc(-n2c(C)cc(C(=O)CSc3ccc(NC(C)=O)cc3)c2C)cc1
- pEC50 [3]: 5.82
- pEC50 [4]: 6.05
- pEC50 [5]: 5.49

SMILES: Cc1cc(C(F)(F)F)n2nc(C)c(-c3ccc(OC(F)F)cc3)c2n1
- Kp at […] [1]: 1.5
- Kp uu at […] [2]: 0.8

SMILES: COc1cc(F)c(-c2c(C)nn3c(C(F)(F)F)cc(C)nc23)cc1F
- Kp at […] [1]: 2.7
- pIC50 (Cytochrome P450 1A2): 5.53
- pIC50 (Cytochrome P450 2C9): < 4.52
- pIC50 (Cytochrome P450 3A4): < 4.52
- pIC50 (Cytochrome P450 2D6): < 4.52

SMILES: COc1ccc(-c2c(C)nn3c(C(F)(F)F)cc(C)nc23)cc1F
- Kp at […] [1]: 4.3
- pIC50 (Cytochrome P450 1A2): 6.48
- pIC50 (Cytochrome P450 2C9): 4.57
- pIC50 (Cytochrome P450 3A4): < 4.52
- pIC50 (Cytochrome P450 2D6): < 4.52

SMILES: CCc1nc2c(o1)CC(c1ccc(C)cc1C)CC2=O (configuration not stated)
- pIC50 [6]: < 5.00
- pIC50 [7]: < 5.00
- pIC50 [8]: 6.19
